Laboratory results from patent publication US10124004B2, “Pyrido[3,4-d]pyrimidine derivative and pharmaceutically acceptable salt thereof” (Teijin Pharma Limited, priority 2015, dated 2018).
Where two headings read alike, the source gives them in different places.

What was measured:
[1] = molecular target: T1, CDK4/cyclin D3 (Homo sapiens, UniProt P11802); test: Human CDK4/cyclin D3 inhibitory activity (QS S Assist CDK4/Cyclin D3_FP Kit, IMAP fluorescence polarization); assay type: biochemical
T1 construct: purchased Carna Biosciences, Inc. QS S Assist CDK4/Cyclin D3_FP Kit
T1 sequence (P11802 whole entry): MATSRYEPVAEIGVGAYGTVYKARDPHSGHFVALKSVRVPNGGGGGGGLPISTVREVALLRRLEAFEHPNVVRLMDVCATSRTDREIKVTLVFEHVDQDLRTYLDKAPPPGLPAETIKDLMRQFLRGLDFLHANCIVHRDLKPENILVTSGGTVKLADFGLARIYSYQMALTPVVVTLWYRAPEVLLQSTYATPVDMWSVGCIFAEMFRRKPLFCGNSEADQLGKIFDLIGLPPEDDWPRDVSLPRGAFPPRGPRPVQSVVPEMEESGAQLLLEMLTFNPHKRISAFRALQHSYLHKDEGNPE
T1 sequence (P30281 whole entry partner): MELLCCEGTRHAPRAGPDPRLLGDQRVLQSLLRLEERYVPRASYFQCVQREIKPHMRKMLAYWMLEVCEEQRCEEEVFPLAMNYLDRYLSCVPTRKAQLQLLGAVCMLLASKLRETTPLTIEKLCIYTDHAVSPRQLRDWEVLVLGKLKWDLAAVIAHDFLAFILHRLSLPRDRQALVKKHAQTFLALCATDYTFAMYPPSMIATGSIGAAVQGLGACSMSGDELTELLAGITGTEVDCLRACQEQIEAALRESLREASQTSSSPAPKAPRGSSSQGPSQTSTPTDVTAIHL
How it was run: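 IMAP fluorescence-polarization kinase assay with kit ATP/substrate/metal mix and 12.5 to 25 ng/well enzyme in 20 mM HEPES pH 7.4, 0.01% Tween20, 2 mM DTT. Reaction ran 45 min at room temperature, then binding reagent was added for 30 min in the dark. IC50 was taken from dose-response fits of percent inhibition.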

[2] = molecular target: T2, CDK2/cyclin A2 (Homo sapiens, UniProt P24941); test: Human CDK2/cyclin A2 inhibitory activity (QS S Assist CDK2/Cyclin A2_FP Kit, IMAP fluorescence polarization); assay type: biochemical
T2 construct: purchased Carna Biosciences, Inc. QS S Assist CDK2/Cyclin A2_FP Kit
How it was run: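 Kinase activity read as fluorescence polarization (485/535 nm) after phosphorylated fluorescent substrate binds IMAP reagent (30 min, RT, dark). Enzyme (2.5 ng/well) reacted 60 min at RT with ATP/substrate/metal in HEPES pH 7.4 buffer with Tween 20 and DTT; no-enzyme wells define 0% activity; IC50 by curve fit.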

[3] = Human CDK4/cyclin D3 inhibitory activity, read-out: CDK4 Activity symbol
[4] = Human CDK2/cyclin A2 inhibitory activity, read-out: CDK2 Activity symbol
[5] = 50% inhibitory concentration against CDK4/cyclin D3, given as class symbol
[6] = 50% inhibitory concentration against CDK2/cyclin A2, given as class symbol

| Compound | IC50 [1, 3] | IC50 [2, 4] | IC50 [1, 5] | IC50 [2, 6] |
| --- | --- | --- | --- | --- |
| CC(C)Nc1nc([C@@H](C)O)c(F)c2cnc(Nc3ccc(N4CCNCC4)cn3)nc12 [Compound 64] | < 10 nM | ≥ 100 nM | – | – |
| CCNc1nc([C@@H](C)O)cc2cnc(Nc3ccc4c(n3)CCNC4)nc12 [Compound 996] | – | – | < 10 nM | ≥ 100 nM |
| CC1(c2cc3cnc(Nc4ccc5c(n4)CCN(CCO)C5)nc3c(N[C@H]3CC[C@H](O)CC3)n2)COC1 [Compound 1155] | – | – | < 10 nM | ≥ 100 nM |
| O=C(O)C1CCN(Cc2ccc(Nc3ncc4cc(C(F)F)nc(NCC5CC5)c4n3)nc2)CC1 [Compound 1100] | – | – | 10 to 100 nM | ≥ 100 nM |
| COCC(C)Nc1nc(C(C)O)cc2cnc(Nc3ccc(N4CCNCC4)cn3)nc12 (stereo not drawn) [Compound 28] | < 10 nM | ≥ 100 nM | – | – |
| C[C@@H](O)c1cc2cnc(Nc3ccc(N4CCNCC4)nn3)nc2c(NC(C)(C)C(=O)O)n1 [Compound 315] | ≥ 100 nM | ≥ 100 nM | – | – |
| CO[C@H](C)c1cc2cnc(Nc3ccc(N4CCNCC4)nn3)nc2c(NC2CCC(C)(C)CC2)n1 [Compound 726] | – | – | < 10 nM | ≥ 100 nM |
| CCNc1nc(C(F)F)cc2cnc(Nc3ccc(CN4CCC(C(=O)O)CC4)cn3)nc12 [Compound 1096] | – | – | 10 to 100 nM | ≥ 100 nM |
| CC(C)Nc1nc([C@@H](C)O)cc2cnc(Nc3ccc(CN4CCNCC4=O)cn3)nc12 [Compound 262] | 10 to 100 nM | ≥ 100 nM | – | – |
| CC(C)Nc1nc([C@@H](C)O)cc2cnc(Nc3ccc4c(n3)CN(C(=O)CO)C4)nc12 [Compound 656] | – | – | < 10 nM | ≥ 100 nM |
| CC(C)Nc1nc(C(C)O)cc2cnc(Nc3ccc(OC4CNCC4F)cn3)nc12 (stereo not drawn) [Compound 673] | – | – | < 10 nM | ≥ 100 nM |
| CC(=O)c1cc2cnc(Nc3ccc(N4CCNCC4)cn3)nc2c(NCC2CC2)n1 [Compound 1052] | – | – | 10 to 100 nM | ≥ 100 nM |
| COCC(C)(C)Nc1nc([C@@H](C)O)cc2cnc(Nc3ccc(CN4CCc5nc(C)[nH]c5C4)cn3)nc12 [Compound 296] | ≥ 100 nM | ≥ 100 nM | – | – |
| C[C@@H](O)c1cc2cnc(Nc3ccc(O[C@H]4CC[C@@H](N(C)C)CC4)cn3)nc2c(N[C@H]2CCCOC2)n1 [Compound 787] | – | – | < 10 nM | ≥ 100 nM |
| CC(C)Nc1nc([C@@H](C)O)cc2cnc(Nc3ccc(O[C@H]4CC[C@H](N(C)C)CC4)cn3)nc12 [Compound 740] | – | – | < 10 nM | ≥ 100 nM |
| CC(C)Nc1nc(C(F)F)cc2cnc(Nc3ccc(CN4CCOCC4=O)cn3)nc12 [Compound 166] | < 10 nM | 10 to 100 nM | – | – |
| COC[C@@H](C)Nc1nc([C@@H](C)OC)cc2cnc(Nc3ccc(CN4CCN(CCO)CC4)cn3)nc12 [Compound 916] | – | – | < 10 nM | ≥ 100 nM |
| CC(C)Nc1nc([C@@H](C)O)cc2cnc(Nc3ccc(N4CCN(C)CC4)nn3)nc12 [Compound 532] | < 10 nM | ≥ 100 nM | – | – |
| CC(C)Nc1nc([C@@H](C)O)cc2cnc(Nc3ccc(N4CC(C)(C)NCC4=O)cn3)nc12 [Compound 923] | – | – | < 10 nM | ≥ 100 nM |

| Compound | IC50 [1, 3] | IC50 [2, 4] | IC50 [1, 5] | IC50 [2, 6] |
| --- | --- | --- | --- | --- |
| CC(C)Nc1nc([C@@H](C)O)cc2cnc(Nc3ccc(C4CNCCO4)nn3)nc12 (stereo partly drawn) [Compound 706] | – | – | < 10 nM | ≥ 100 nM |
| C[C@@H](O)c1cc2cnc(Nc3ccc4c(n3)CCN(C(=O)CO)C4)nc2c(N[C@H]2CCCOC2)n1 [Compound 1118] | – | – | < 10 nM | ≥ 100 nM |
| C[C@@H](O)c1cc2cnc(Nc3ccc(CN4CCN(CCO)CC4)cn3)nc2c(NCC(C)(F)F)n1 [Compound 1215] | – | – | < 10 nM | ≥ 100 nM |
| C[C@@H](O)c1cc2cnc(Nc3ccc(O[C@H]4CC[C@H](N(C)C)CC4)cn3)nc2c(N[C@H]2CCCOC2)n1 [Compound 786] | – | – | < 10 nM | ≥ 100 nM |
| CO[C@H](C)c1cc2cnc(Nc3ccc(N4CCN(C(=O)C(C)C)CC4)nn3)nc2c(NC(C)C)n1 [Compound 747] | – | – | 10 to 100 nM | ≥ 100 nM |
| CC(C)Nc1nc(C(F)F)cc2cnc(Nc3ccc(C4=CC(=O)NCC4)cn3)nc12 [Compound 203] | < 10 nM | 10 to 100 nM | – | – |
| CNC1CCCC1Oc1ccc(Nc2ncc3cc(C(C)O)nc(NC(C)C)c3n2)nc1 (stereo not drawn) [Compound 801] | – | – | < 10 nM | ≥ 100 nM |
| CC(C)Nc1nc([C@@H](C)O)cc2cnc(Nc3ccc(CN4CCNC(=O)C4)cn3)nc12 [Compound 234] | < 10 nM | ≥ 100 nM | – | – |
| CC(C)Nc1nc(C(F)F)cc2cnc(Nc3ccc(N4CCCC(O)C4)nn3)nc12 (stereo not drawn) [Compound 226] | < 10 nM | 10 to 100 nM | – | – |
| CC(C)Nc1nc([C@@H](C)O)cc2cnc(Nc3ccc(NC(=O)C4CCCNC4)cn3)nc12 (stereo partly drawn) [Compound 769] | – | – | < 10 nM | ≥ 100 nM |
| COCC(C)(C)Nc1nc([C@@H](C)O)cc2cnc(Nc3ccc(CC(N)=O)cn3)nc12 [Compound 222] | 10 to 100 nM | ≥ 100 nM | – | – |
| CCCNc1nc([C@@H](C)O)cc2cnc(Nc3ccc(N4CCNCC4)cn3)nc12 [Compound 921] | – | – | < 10 nM | ≥ 100 nM |
| COC1CCC(Nc2nc([C@@H](C)O)cc3cnc(Nc4ccc(N5CCC(O)CC5)nn4)nc23)CC1 (stereo partly drawn) [Compound 590] | < 10 nM | ≥ 100 nM | – | – |
| CC(C)Nc1nc([C@@H](C)O)cc2cnc(Nc3ccc(N4CCN(CC(C)(C)O)CC4=O)cn3)nc12 [Compound 627] | – | – | < 10 nM | ≥ 100 nM |
| C[C@@H](O)c1cc2cnc(Nc3ccc(CN4CCN(CCO)CC4)cn3)nc2c(NCCC(F)(F)F)n1 [Compound 1214] | – | – | < 10 nM | ≥ 100 nM |
| CNC1CCCC1Oc1ccc(Nc2ncc3cc(C(C)O)nc(NC(C)C)c3n2)nc1 (stereo not drawn) [Compound 799] | – | – | < 10 nM | ≥ 100 nM |
| CNCCOc1ccc(Nc2ncc3cc([C@@H](C)O)nc(NC4CCC(OC)CC4)c3n2)nc1 (stereo partly drawn) [Compound 592] | < 10 nM | ≥ 100 nM | – | – |
| CC(C)Nc1nc([C@@H](C)O)cc2cnc(Nc3ccc(-c4cncn4C)cn3)nc12 [Compound 958] | – | – | < 10 nM | ≥ 100 nM |
| CO[C@H](C)c1cc2cnc(Nc3ccc(CN4CCN(CCO)CC4)cn3)nc2c(NC(C)(C)CO)n1 [Compound 913] | – | – | < 10 nM | ≥ 100 nM |

| Compound | IC50 [1, 3] | IC50 [2, 4] | IC50 [1, 5] | IC50 [2, 6] |
| --- | --- | --- | --- | --- |
| C[C@@H](O)c1cc2cnc(Nc3ccc(N4CCNCC4)nn3)nc2c(NCC2CCOCC2)n1 [Compound 313] | < 10 nM | ≥ 100 nM | – | – |
| CO[C@H](C)c1cc2cnc(Nc3ccc(CN4CCNCC4)cn3)nc2c(N[C@H]2CC[C@H](O)CC2)n1 [Compound 345] | < 10 nM | ≥ 100 nM | – | – |
| CO[C@H](C)c1cc2cnc(Nc3ccc(N4CCNCC4)nn3)nc2c(NCC2CCOCC2)n1 [Compound 358] | < 10 nM | ≥ 100 nM | – | – |
| COCC(C)(C)Nc1nc([C@@H](C)O)cc2cnc(Nc3ccc(N4CCOCC4)nn3)nc12 [Compound 216] | 10 to 100 nM | ≥ 100 nM | – | – |
| COCC(C)(C)Nc1nc([C@@H](C)O)cc2cnc(Nc3ccc(CN4CCNCC4=O)cn3)nc12 [Compound 248] | 10 to 100 nM | ≥ 100 nM | – | – |
| CC(C)Nc1nc(C(F)F)cc2cnc(Nc3ccc(NC(=O)CO)cn3)nc12 [Compound 95] | ≥ 100 nM | 10 to 100 nM | – | – |
| CCNc1nc([C@@H](C)OC)cc2cnc(Nc3ccc4c(n3)CCN(CCO)C4)nc12 [Compound 1120] | – | – | 10 to 100 nM | ≥ 100 nM |
| CO[C@@H](C)c1cc2cnc(Nc3ccc(N4CCNCC4)cn3)nc2c(NC(C)C)n1 [Compound 38] | < 10 nM | ≥ 100 nM | – | – |
| COC(C)c1cc2cnc(Nc3ccc(CN4CCNCC4)cn3)nc2c(NC2CCC(C)(C)OC2)n1 (stereo not drawn) [Compound 432] | < 10 nM | ≥ 100 nM | – | – |
| CC(C)Nc1nc([C@@H](C)O)cc2cnc(Nc3ccc(N4CCN(CC(=O)N(C)C)CC4)nn3)nc12 [Compound 991] | – | – | < 10 nM | ≥ 100 nM |
| Cc1c([C@@H](C)O)nc(NC(C)C)c2nc(Nc3ccc(N4CCNCC4)cn3)ncc12 [Compound 66] | < 10 nM | ≥ 100 nM | – | – |
| CC(C)Nc1nc(C(F)F)cc2cnc(Nc3ccc(N4C[C@H](O)CC4=O)cn3)nc12 [Compound 183] | < 10 nM | 10 to 100 nM | – | – |
| FC(F)c1cc2cnc(Nc3ccc(CN4CCNCC4)cn3)nc2c(NC2CCOCC2)n1 [Compound 364] | < 10 nM | 10 to 100 nM | – | – |
| CO[C@H](C)c1cc2cnc(Nc3ccc(N4CCN(C(C)(C)C(=O)O)CC4)nn3)nc2c(NC(C)C)n1 [Compound 678, (R)-2-(4-(6-((8-(isopropylamino)-6-(1-methoxyethyl)pyrido[3,4-d]pyrimidin-2-yl)amino)pyridazin-3-yl)piperazin-1-yl)-2-methylpropanoic acid] | – | – | 10 to 100 nM | ≥ 100 nM |
| CC(C)Nc1nc(C(F)F)cc2cnc(Nc3ccc(C4CCS(=O)(=O)CC4)cn3)nc12 [Compound 159] | < 10 nM | ≥ 100 nM | – | – |
| CO[C@H](C)c1cc2cnc(Nc3ccc(N4CCC(O)C4)nn3)nc2c(NC(C)C)n1 (stereo partly drawn) [Compound 334] | 10 to 100 nM | ≥ 100 nM | – | – |
| C[C@@H](O)c1cc2cnc(Nc3ccc(OCC4CCN4)cn3)nc2c(N[C@H]2CCCOC2)n1 (stereo partly drawn) [Compound 802] | – | – | < 10 nM | ≥ 100 nM |
| CC(C)Nc1nc([C@@H](C)O)cc2cnc(Nc3ccc(CN4CCN(CC(=O)N(C)C)CC4)cn3)nc12 [Compound 1018] | – | – | < 10 nM | ≥ 100 nM |
| CO[C@H](C)c1cc2cnc(Nc3ccc(N4C[C@H]5C[C@@H]4CN5)nn3)nc2c(NC(C)C)n1 [Compound 859] | – | – | < 10 nM | ≥ 100 nM |
